In the supplement of paper PMC10307832:

Tests used:
Test in all cases: relative viability (nuclei count vs DMSO), 5 days (fraction); higher = more cells survive
NCI-H1734 = test system: NCI-H1734
Outline: (§1)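 One day after seeding in 1536-well plates, lung cancer cell lines were dosed by pin tool. Dosing was either single-drug or a fixed anchor-drug dose plus five library-drug doses (not always all listed) in √10 steps. After 5 days, nuclei were stained in one fix-and-stain step and counted on 4× images, and relative viability is the nuclei count of treated wells over that of vehicle wells, given as the median of duplicate plates.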

NCI-H322M = test system: NCI-H322M
Outline: as §1

NCI-H647 = test system: NCI-H647
Outline: as §1

HOP-62 = test system: HOP-62
Outline: as §1

NCI-H441 = test system: NCI-H441
Outline: as §1

NCI-H596 = test system: NCI-H596
Outline: as §1

NCI-H2009 = test system: NCI-H2009
Outline: as §1

NCI-H1563 = test system: NCI-H1563
Outline: as §1

LXF-289 = test system: LXF-289
Outline: as §1

201T = test system: 201T
Outline: as §1

NCI-H3122 = test system: NCI-H3122
Outline: as §1

NCI-H2126 = test system: NCI-H2126
Outline: as §1

ABC-1 = test system: ABC-1
Outline: as §1

H3255 = test system: H3255
Outline: as §1

LK-2 = test system: LK-2
Outline: as §1

NCI-H2170 = test system: NCI-H2170
Outline: as §1

PC-14 = test system: PC-14
Outline: as §1

NCI-H1651 = test system: NCI-H1651
Outline: as §1

NCI-H1755 = test system: NCI-H1755
Outline: as §1

CAL-12T = test system: CAL-12T
Outline: as §1

NCI-H2087 = test system: NCI-H2087
Outline: as §1

EMC-BAC-2 = test system: EMC-BAC-2
Outline: as §1

Structure (SMILES): CCCCCCCCCCCC1=C(O)C(=O)C=C(O)C1=O [Embelin] + Cc1nc(NC(=O)N2CCC[C@H]2C(N)=O)sc1-c1ccnc(C(C)(C)C(F)(F)F)c1 [Alpelisib] (partner 2 µM)
- relative viability (NCI-H1734; first compound 0.08 µM): 0.758
- relative viability (NCI-H1734; first compound 0.8 µM): 0.726
- relative viability (NCI-H1734; first compound 2.53 µM): 0.745
- relative viability (NCI-H1734; first compound 8 µM): 0.741
- relative viability (NCI-H322M; first compound 0.08 µM): 0.833
- relative viability (NCI-H322M; first compound 0.8 µM): 0.801
- relative viability (NCI-H322M; first compound 2.53 µM): 0.856
- relative viability (NCI-H322M; first compound 8 µM): 0.648
- relative viability (NCI-H647; first compound 0.08 µM): 1.29
- relative viability (NCI-H647; first compound 0.8 µM): 1.15
- relative viability (NCI-H647; first compound 2.53 µM): 1.45
- relative viability (NCI-H647; first compound 8 µM): 1.28
- relative viability (HOP-62; first compound 0.08 µM): 1.04
- relative viability (HOP-62; first compound 0.8 µM): 0.918
- relative viability (HOP-62; first compound 2.53 µM): 1.41
- relative viability (HOP-62; first compound 8 µM): 0.796
- relative viability (NCI-H441; first compound 0.08 µM): 0.85
- relative viability (NCI-H441; first compound 2.53 µM): 0.933
- relative viability (NCI-H441; first compound 8 µM): 0.847
- relative viability (NCI-H596; first compound 0.08 µM): 0.487
- relative viability (NCI-H596; first compound 0.8 µM): 0.522
- relative viability (NCI-H596; first compound 2.53 µM): 0.482
- relative viability (NCI-H596; first compound 8 µM): 0.581
- relative viability (NCI-H2009; first compound 0.08 µM): 1.26
- relative viability (NCI-H2009; first compound 0.8 µM): 1.27
- relative viability (NCI-H2009; first compound 2.53 µM): 1.18
- relative viability (NCI-H2009; first compound 8 µM): 1.16
- relative viability (NCI-H1563; first compound 0.08 µM): 0.845
- relative viability (NCI-H1563; first compound 0.8 µM): 0.978
- relative viability (NCI-H1563; first compound 2.53 µM): 0.856
- relative viability (NCI-H1563; first compound 8 µM): 0.913
- relative viability (LXF-289; first compound 0.08 µM): 1.03
- relative viability (LXF-289; first compound 0.8 µM): 1.07
- relative viability (LXF-289; first compound 2.53 µM): 1.08
- relative viability (LXF-289; first compound 8 µM): 1.13
- relative viability (201T; first compound 0.08 µM): 0.979
- relative viability (201T; first compound 0.8 µM): 1.03
- relative viability (201T; first compound 2.53 µM): 0.981
- relative viability (201T; first compound 8 µM): 0.971
- relative viability (NCI-H3122; first compound 0.08 µM): 0.746
- relative viability (NCI-H3122; first compound 0.8 µM): 0.697
- relative viability (NCI-H3122; first compound 2.53 µM): 0.728
- relative viability (NCI-H3122; first compound 8 µM): 0.737
- relative viability (NCI-H2126; first compound 0.08 µM): 0.792
- relative viability (NCI-H2126; first compound 0.8 µM): 0.743
- relative viability (NCI-H2126; first compound 2.53 µM): 0.799
- relative viability (NCI-H2126; first compound 8 µM): 0.748
- relative viability (ABC-1; first compound 0.08 µM): 1.24
- relative viability (ABC-1; first compound 0.8 µM): 1.1
- relative viability (ABC-1; first compound 2.53 µM): 0.996
- relative viability (ABC-1; first compound 8 µM): 1.18
- relative viability (H3255; first compound 0.08 µM): 0.935
- relative viability (H3255; first compound 0.8 µM): 0.804
- relative viability (H3255; first compound 2.53 µM): 0.766
- relative viability (H3255; first compound 8 µM): 0.653
- relative viability (LK-2; first compound 0.08 µM): 1.09
- relative viability (LK-2; first compound 0.8 µM): 1.5
- relative viability (LK-2; first compound 2.53 µM): 1.09
- relative viability (LK-2; first compound 8 µM): 0.99
- relative viability (NCI-H2170; first compound 0.08 µM): 0.856
- relative viability (NCI-H2170; first compound 0.8 µM): 0.853
- relative viability (NCI-H2170; first compound 2.53 µM): 0.92
- relative viability (NCI-H2170; first compound 8 µM): 0.777
- relative viability (PC-14; first compound 0.08 µM): 0.9
- relative viability (PC-14; first compound 0.8 µM): 0.973
- relative viability (PC-14; first compound 2.53 µM): 0.976
- relative viability (PC-14; first compound 8 µM): 0.959
- relative viability (NCI-H1651; first compound 0.08 µM): 0.939
- relative viability (NCI-H1651; first compound 0.8 µM): 0.971
- relative viability (NCI-H1651; first compound 2.53 µM): 0.945
- relative viability (NCI-H1651; first compound 8 µM): 0.873
- relative viability (NCI-H1755; first compound 0.08 µM): 0.906
- relative viability (NCI-H1755; first compound 0.8 µM): 0.966
- relative viability (NCI-H1755; first compound 2.53 µM): 0.994
- relative viability (NCI-H1755; first compound 8 µM): 0.934
- relative viability (CAL-12T; first compound 0.08 µM): 1.24
- relative viability (CAL-12T; first compound 0.8 µM): 1.49
- relative viability (CAL-12T; first compound 2.53 µM): 1.31
- relative viability (CAL-12T; first compound 8 µM): 1.33
- relative viability (NCI-H2087; first compound 0.08 µM): 0.988
- relative viability (NCI-H2087; first compound 0.8 µM): 1.13
- relative viability (NCI-H2087; first compound 2.53 µM): 1.03
- relative viability (NCI-H2087; first compound 8 µM): 1.08
- relative viability (EMC-BAC-2; first compound 0.08 µM): 0.75
- relative viability (EMC-BAC-2; first compound 0.8 µM): 0.736
- relative viability (EMC-BAC-2; first compound 2.53 µM): 0.792
- relative viability (EMC-BAC-2; first compound 8 µM): 0.825

Structure (SMILES): CCCCCCCCCCCC1=C(O)C(=O)C=C(O)C1=O [Embelin] + CS(=O)(=O)CCNCc1ccc(-c2ccc3ncnc(Nc4ccc(OCc5cccc(F)c5)c(Cl)c4)c3c2)o1 [Lapatinib] (partner 2 µM)
- relative viability (NCI-H1734; first compound 0.08 µM): 0.963
- relative viability (NCI-H1734; first compound 0.8 µM): 1.28
- relative viability (NCI-H1734; first compound 2.53 µM): 1.26
- relative viability (NCI-H1734; first compound 8 µM): 1.12
- relative viability (NCI-H322M; first compound 0.08 µM): 0.548
- relative viability (NCI-H322M; first compound 0.8 µM): 0.614
- relative viability (NCI-H322M; first compound 2.53 µM): 0.726
- relative viability (NCI-H322M; first compound 8 µM): 0.561
- relative viability (NCI-H647; first compound 0.08 µM): 1.08
- relative viability (NCI-H647; first compound 0.8 µM): 1.38
- relative viability (NCI-H647; first compound 2.53 µM): 1.89
- relative viability (NCI-H647; first compound 8 µM): 1.17
- relative viability (HOP-62; first compound 0.08 µM): 1.01
- relative viability (HOP-62; first compound 0.8 µM): 1.08
- relative viability (HOP-62; first compound 2.53 µM): 1.1
- relative viability (HOP-62; first compound 8 µM): 0.908
- relative viability (NCI-H596; first compound 0.08 µM): 1.17
- relative viability (NCI-H596; first compound 0.8 µM): 1.07
- relative viability (NCI-H596; first compound 2.53 µM): 1.12
- relative viability (NCI-H596; first compound 8 µM): 1.17
- relative viability (NCI-H2009; first compound 0.08 µM): 1.05
- relative viability (NCI-H2009; first compound 0.8 µM): 1.09
- relative viability (NCI-H2009; first compound 2.53 µM): 0.815
- relative viability (NCI-H2009; first compound 8 µM): 0.879
- relative viability (NCI-H1563; first compound 0.08 µM): 0.869
- relative viability (NCI-H1563; first compound 0.8 µM): 1.11
- relative viability (NCI-H1563; first compound 2.53 µM): 0.838
- relative viability (NCI-H1563; first compound 8 µM): 0.839
- relative viability (LXF-289; first compound 0.08 µM): 0.961
- relative viability (LXF-289; first compound 0.8 µM): 0.882
- relative viability (LXF-289; first compound 2.53 µM): 0.978
- relative viability (LXF-289; first compound 8 µM): 0.936
- relative viability (201T; first compound 0.08 µM): 1.03
- relative viability (201T; first compound 0.8 µM): 1.04
- relative viability (201T; first compound 2.53 µM): 1
- relative viability (201T; first compound 8 µM): 0.99
- relative viability (NCI-H3122; first compound 0.08 µM): 1.02
- relative viability (NCI-H3122; first compound 0.8 µM): 0.977
- relative viability (NCI-H3122; first compound 2.53 µM): 0.956
- relative viability (NCI-H3122; first compound 8 µM): 1.09
- relative viability (NCI-H2126; first compound 0.08 µM): 0.742
- relative viability (NCI-H2126; first compound 0.8 µM): 0.791
- relative viability (NCI-H2126; first compound 2.53 µM): 0.83
- relative viability (NCI-H2126; first compound 8 µM): 0.643
- relative viability (ABC-1; first compound 0.08 µM): 1.28
- relative viability (ABC-1; first compound 0.8 µM): 1.7
- relative viability (ABC-1; first compound 2.53 µM): 1.25
- relative viability (ABC-1; first compound 8 µM): 1.1
- relative viability (H3255; first compound 0.08 µM): 0.225
- relative viability (H3255; first compound 0.8 µM): 0.281
- relative viability (H3255; first compound 2.53 µM): 0.234
- relative viability (H3255; first compound 8 µM): 0.281
- relative viability (LK-2; first compound 0.08 µM): 0.906
- relative viability (LK-2; first compound 0.8 µM): 0.991
- relative viability (LK-2; first compound 2.53 µM): 1.24
- relative viability (LK-2; first compound 8 µM): 0.825
- relative viability (NCI-H2170; first compound 0.08 µM): 0.276
- relative viability (NCI-H2170; first compound 0.8 µM): 0.282
- relative viability (NCI-H2170; first compound 2.53 µM): 0.275
- relative viability (NCI-H2170; first compound 8 µM): 0.253
- relative viability (PC-14; first compound 0.08 µM): 0.391
- relative viability (PC-14; first compound 0.8 µM): 0.355
- relative viability (PC-14; first compound 2.53 µM): 0.347
- relative viability (PC-14; first compound 8 µM): 0.353
- relative viability (NCI-H1651; first compound 0.08 µM): 0.789
- relative viability (NCI-H1651; first compound 0.8 µM): 0.974
- relative viability (NCI-H1651; first compound 2.53 µM): 0.99
- relative viability (NCI-H1651; first compound 8 µM): 0.824
- relative viability (NCI-H1755; first compound 0.08 µM): 1.03
- relative viability (NCI-H1755; first compound 0.8 µM): 1.04
- relative viability (NCI-H1755; first compound 2.53 µM): 1.06
- relative viability (NCI-H1755; first compound 8 µM): 0.97
- relative viability (CAL-12T; first compound 0.08 µM): 0.757
- relative viability (CAL-12T; first compound 0.8 µM): 0.878
- relative viability (CAL-12T; first compound 8 µM): 0.703
- relative viability (NCI-H2087; first compound 0.08 µM): 1.07
- relative viability (NCI-H2087; first compound 0.8 µM): 1.02
- relative viability (NCI-H2087; first compound 2.53 µM): 1.2
- relative viability (NCI-H2087; first compound 8 µM): 1.23
- relative viability (EMC-BAC-2; first compound 0.08 µM): 0.932
- relative viability (EMC-BAC-2; first compound 0.8 µM): 0.959
- relative viability (EMC-BAC-2; first compound 2.53 µM): 0.926
- relative viability (EMC-BAC-2; first compound 8 µM): 0.817
